Results from publication PMC5131364, “Pharmacologic modulation of RORγt translates to efficacy in preclinical and translational models of psoriasis and inflammatory arthritis” (Scientific Reports, 2016).
Like-named read-outs stand apart in the source and are kept apart here.

How the values were obtained:
Format in all cases: cell-based
RORα = biological target: T1, RORα (Homo sapiens, UniProt P35398); assay: 1-hybrid reporter assay in HEK293T cells (GAL4-RORα); conditions: HEK-293T
T1 construct: NP_599022, aa 305–556; expressed in transfected cells; host or cells: HEK293T
Method: (§1) The reporter assay was performed by transient co-transfection of HEK293T cells with pCMV-BD (Stratagene #211342) containing the GAL4 DNA-binding domain fused with full-length human RORγt (Genbank accession no. NP_001001523, aa 1–497), pFR-Luc reporter and pRL-CMV reporter (Promega #E2261) plus Carrier DNA (Clontech # 630440) using PEI solution (Sigma Aldrich cat# 40872-7) in a 96-well plate. […] Medium was removed and cells were lysed with Passive Lysis Buffer (Promega). Firefly luciferase buffer was then added and firefly luciferase luminescence was read on BMG LUMIstar OPTIMA luminescence plate reader. One second later, renilla luciferase buffer was then added and renilla luciferase luminescence was read to measure cell viability. For RORα and RORβ activity, similar assays were performed except cells were transfected with pCMV-BD-RORα (Genbank accession no. NP_599022, aa 305–556) or pCMV-BD-RORβ (Genbank accession no. NP_008845, aa 201–459).

RORβ = biological target: T2, RORβ (Homo sapiens, UniProt Q92753); assay: 1-hybrid reporter assay in HEK293T cells (GAL4-RORβ); conditions: HEK-293T
T2 construct: NP_008845, aa 201–459; expressed in transfected cells; host or cells: HEK293T
Method: as §1

[1] = tested on: naïve CD4+ T cells under Th17-polarizing conditions; assay: In vitro mouse Th17 differentiation; conditions: for IC50: Mus musculus, CD4+ T
Source text: (§2) The following antibodies (anti-mouse or anti-human) were purchased from BD Biosciences (San Diego, CA) or eBioscience (San Diego, CA): anti-CD3-FITC (mouse 17A2 and human SK7), anti-CD4-allophycocyanin (APC), anti-CD4-PerCp, anti-CD4-FITC, anti-CD4-PE (mouse GK1.5 and human SK3), anti-CD44-PerCp (mouse IM7), anti-γδ TCR-FITC, anti-γδ TCR-PE (mouse GL3 and human B1), anti-CD62L-FITC (mouse MEL-14 and human SK11), anti-CD45RO-APC (human UCHL1), anti-CCR6-PE (human 11A9), anti-CD45-PerCp (mouse 30-F11). Human or mouse anti-IFNγ (mouse XMG1.2 and human 4S.B3), anti-TNFα (mouse MP6-XT22 and human MAB11), anti-IL-17A (mouse eBio17B7 and human eBio64DEC17), anti-IL-22 (mouse 1H8PWSR and human 22URTI), and anti-Foxp3 (mouse FJK-16s and human 36A/E7), all PE or APC conjugated, were purchased from eBioscience (San Diego, CA). Human and mouse APC conjugated CD1d tetramers pre-loaded with alpha-GalCer and negative controls were obtained from ProImmune. For intracellular staining cells were stimulated for 4 hours at 37 °C with PMA and ionomycin (0.5 μg/ml each) in the presence of brefeldin A and monensin or with leukocyte activation cocktail (BD Bioscience, San Diego, CA). Cells were stained with fluorescence-labeled antibodies for surface marker, then fixed/permeabilized (eBioscience) and stained with antibodies for intracellular cytokines. For Foxp3 staining cells were fixed/permeabilized using transcription factor buffer set (eBioscience). The data were acquired on a FACS Calibur (BD Bioscience) and analyzed using FlowJo software (Tree Star, San Carlos, CA).
Naïve CD4^+ T cells were isolated from splenocytes of C57BL/6N mice using a naïve CD4^+ T cell isolation kit II (Miltenyl Biotec, Auburn, CA), following the manufacturer’s instructions. Cells were resuspended in culture medium (RPMI-1640 medium supplemented with 10% fetal bovine serum, 50 IU/ml penicillin, 50 μg/ml streptomycin, 2 mM glutamine, and 55 μM β-mercaptoethanol), and were added to 96-well plates at 2 × 10^5 per well. […] Cells were incubated for 1 hour, after which Th17 cell differentiation medium was added with final concentrations of 1 μg/ml anti-CD3, 5 μg/mL anti-CD28 (BD Pharmingen, San Diego, CA), 10 μg/ml anti-IL-4, 10 μg/ml anti-IFNγ, 10 ng/mL IL-23, 10 ng/mL IL-6, and 10 ng/ml TGFβ (R&D Systems, Minneapolis, MN). Cells were cultured at 37 °C and 5% CO2 for 3 days. Supernatants were collected and the accumulated cytokines in culture were measured by ELISA kits (R&D Systems, Minneapolis, MN) following manufacturers’ instructions. Cells were harvested for staining and flow cytometry analysis.

[2] = tested on: human γδ+ T cells in PBMCs; assay: Human γδ+ T cell in vitro activation; conditions: 168 h, IL-1β, IL-23 and IPP, 7 days, average, read-out: inhibition of the IL-17A+ γδ+ T cell population
Source text: as §2, with “For intracellular staining cells were stimulated for 4 hours at 37 °C with PMA and ionomycin (0.5 μg/ml each) in the presence of brefeldin A and monensin or with leukocyte activation cocktail (BD Bioscience, San Diego, CA).” left out, “For Foxp3 staining cells were fixed/permeabilized using transcription factor buffer set (eBioscience).” left out
Human γδ^+ T cells were analyzed only through flow cytometry. […]

PBMC from healthy donors = assay: IL-17A production from PBMC of healthy donors; conditions: Homo sapiens, typically observed
Source text: Frozen PBMCs of healthy and rheumatoid arthritis patients were obtained from SeraCare Life Sciences (Gaithersburg, MD). […] 3 days later, supernatants were collected and analyzed by MSD multi-spot assay or ELISA for IL-17A, IL-22 and IL-13 production.

T1 sequence (P35398 272-523): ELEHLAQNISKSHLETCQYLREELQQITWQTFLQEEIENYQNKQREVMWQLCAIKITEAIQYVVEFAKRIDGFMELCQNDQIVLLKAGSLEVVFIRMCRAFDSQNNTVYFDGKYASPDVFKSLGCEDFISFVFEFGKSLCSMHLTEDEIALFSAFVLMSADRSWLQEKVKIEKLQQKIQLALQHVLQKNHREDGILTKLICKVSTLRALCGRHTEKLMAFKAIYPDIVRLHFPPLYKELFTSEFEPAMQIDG
T2 sequence (Q92753 212-470): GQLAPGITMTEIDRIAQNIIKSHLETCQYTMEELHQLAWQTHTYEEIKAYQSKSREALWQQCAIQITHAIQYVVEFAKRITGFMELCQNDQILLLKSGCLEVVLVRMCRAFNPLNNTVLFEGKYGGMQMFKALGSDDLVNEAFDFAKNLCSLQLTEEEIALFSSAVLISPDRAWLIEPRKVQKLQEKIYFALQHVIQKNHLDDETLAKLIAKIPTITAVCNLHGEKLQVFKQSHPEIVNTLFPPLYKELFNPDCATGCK

IC50 (RORα): 4000 nM | IC50 (RORβ): > 10000 nM | IC50 ([1]; Th17-polarizing condition, supernatant, read-out: IC50, IL-17A production): 17 nM | IC50 ([1]; flow cytometry, read-out: IC50, total IL-17A-producing cells): 21 nM
Structure (SMILES): COc1nc2ccc([C@@](O)(c3ccc(C)nc3C)c3cnnn3C)cc2c(Cl)c1Cc1ccc(C(F)(F)F)cc1 [JNJ-54271074]
IL-17A-producing cells ([1]; 1 μM, flow cytometry): almost completely abolished | TNFα production ([1]; Th17-polarizing condition, supernatant): did not inhibit | inhibition at 1 µM [2]: 56% | IC50 (PBMC from healthy donors): 3 ± 0.9 nM
